Test results from US12297502B2, “Methods and compositions for detecting and diagnosing diseases and conditions” (Stealth BioTherapeutics Inc., priority 2013, dated 2025).

Assays:
[1] = system: dogs with coronary microembolization-induced heart failure; test: LV function and mitochondrial ATP synthesis, dog model of heart failure; assay type: in vivo; settings: HF dogs, chronic treatment
TAZ1 mRNA = TAZ1 mRNA in LV tissue by real-time PCR, dog model of heart failure; assay type: in vivo; settings: HF dogs, 0.5 mg/kg subcutaneous once daily, three months, normalized to GAPDH, printed as e.g. about ... or more
Description: In this Example, the effect of the aromatic-cationic peptide D-Arg-2′6′-Dmt-Lys-Phe-NH2 on cardiolipin remodeling enzymes, MLCL AT1, ALCAT1, and TAZ1 in dogs with coronary microembolization-induced heart failure will be investigated.
Heart failure will be induced in dogs via multiple sequential intracoronary microembolizations as described in Sabbah, et al., Am J Physiol. (1991) 260:H1379-84, herein incorporated by reference in its entirety.
Twelve dogs will be subject to coronary microembolization-induced heart failure (LV ejection fraction ˜30%). Subjects will be randomized into D-Arg-2′6′-Dmt-Lys-Phe-NH2-treated and control groups for a three-month trial. Subjects will receive subcutaneous injections of D-Arg-2′6′-Dmt-Lys-Phe-NH2 (0.5 mg/kg once daily, n=6) or saline (Untreated-HF Control, n=6). RNA will be prepared from LV tissue of all subjects at the end of the treatment phase and from the LV of six normal subject controls. Levels of TAZ1 mRNA will be determined by real-time PCR. Changes in mRNA levels will be expressed as fold reduction using the CT Method, with normalization to a […] (GAPDH) internal control.

[2] = system: heart mitochondrial cardiolipin; test: 18:2 cardiolipin in left ventricle heart muscle, dog model of heart failure (shotgun lipidomics); assay type: in vivo; settings: HF dogs, 0.5 mg/kg/day intravenously, 12 weeks, versus normal dogs (NL) and untreated HF dogs (HF-CON)
Description: In this Example, the effect of aromatic-cationic peptide such as D-Arg-2′6′-Dmt-Lys-Phe-NH2 on heart mitochondrial cardiolipin levels in dogs with coronary microembolization-induced heart failure will be investigated.
Heart failure will be induced in dogs via multiple sequential intracoronary microembolizations as described in Sabbah, et al., Am J Physiol. (1991) 260:H1379-84, herein incorporated by reference in its entirety. Half the dogs will be subsequently treated with the mitochondrial peptide; the other half will be treated with drug vehicle and serve as controls. Peptide treatment will be started upon induction of heart failure (HF), defined as left ventricular ejection fraction of approximately 30%. The daily dose of the peptide will be 0.5 mg/kg/day administered intravenously. At the end of the treatment phase (12 weeks) dogs in both the vehicle and treatment groups will be sacrificed and a sample of heart muscle from the left ventricle will be removed, washed with saline, and immediately frozen and stored at −80° C. For cardiolipin analysis, lipids will be extracted from the heart tissue sample with a chloroform/methanol solution (Bligh Dyer extraction). […]

mu-opioid receptor = mu-opioid receptor (Homo sapiens, UniProt P35372); test: mu-opioid receptor agonist activity; settings: stated in the description, no test described
Sequence of mu-opioid receptor (P35372 whole entry, species assumed): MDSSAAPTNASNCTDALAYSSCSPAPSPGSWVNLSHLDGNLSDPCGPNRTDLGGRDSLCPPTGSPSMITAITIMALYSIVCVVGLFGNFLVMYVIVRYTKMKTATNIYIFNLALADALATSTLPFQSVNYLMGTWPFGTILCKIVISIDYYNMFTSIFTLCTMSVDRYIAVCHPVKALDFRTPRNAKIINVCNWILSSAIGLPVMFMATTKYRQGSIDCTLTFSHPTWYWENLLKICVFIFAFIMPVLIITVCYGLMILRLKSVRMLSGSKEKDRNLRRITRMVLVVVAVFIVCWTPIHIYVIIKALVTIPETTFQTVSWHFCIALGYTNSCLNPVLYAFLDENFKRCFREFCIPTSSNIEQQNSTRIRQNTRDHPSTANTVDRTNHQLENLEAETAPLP

[3] = cited from earlier work
[4] = system: plasma membrane of several mammalian cell types; settings: energy-independent manner; Zhao et al., J. Pharmacol Exp Ther., 304:425-432, 2003; cited from earlier work

Substance: D-Arg-2′6′-Dmt-Lys-Phe-NH2
- LV function [1]: improved
- rate of mitochondrial ATP synthesis [1]: improved
- attenuation of the decrease of TAZ1 mRNA (TAZ1 mRNA): 1-1.23 fold
- levels of 18:2 cardiolipin [2]: normalize
- mu-opioid receptor agonist activity (mu-opioid receptor): does not have mu-opioid receptor agonist activity

Substance: cardiolipin
- pK2 ([3]; ionization of both phosphates): > 7.5
- pK1 ([3]; ionization of one phosphate): 3

Substance: 2′,6′-Dmt-D-Arg-Phe-Lys-NH2
- penetration of cell membranes [4]: readily penetrates
